Source: US6737397B1, “Control of cancer growth through the interaction of [MET5]-enkephalin and the zeta receptor” (The Penn State Research Foundation, priority 1996, dated 2004)
Marks after values point to notes of the source that are not given here.

Experiments:
ζ-opioid receptor [1] = target: T1, ζ-opioid receptor (Homo sapiens, UniProt Q9NZT2); assay: Competition for binding of [3H][Met5]enkephalin (4.0 nM) in nuclear homogenates of HT-29 human colon tumors; parameters: from tissue; host or cells: HT-29 human colon tumor xenografts grown in athymic nude mice; nuclear (P1) and other subcellular fractions
T1 sequence (Q9NZT2 1-677): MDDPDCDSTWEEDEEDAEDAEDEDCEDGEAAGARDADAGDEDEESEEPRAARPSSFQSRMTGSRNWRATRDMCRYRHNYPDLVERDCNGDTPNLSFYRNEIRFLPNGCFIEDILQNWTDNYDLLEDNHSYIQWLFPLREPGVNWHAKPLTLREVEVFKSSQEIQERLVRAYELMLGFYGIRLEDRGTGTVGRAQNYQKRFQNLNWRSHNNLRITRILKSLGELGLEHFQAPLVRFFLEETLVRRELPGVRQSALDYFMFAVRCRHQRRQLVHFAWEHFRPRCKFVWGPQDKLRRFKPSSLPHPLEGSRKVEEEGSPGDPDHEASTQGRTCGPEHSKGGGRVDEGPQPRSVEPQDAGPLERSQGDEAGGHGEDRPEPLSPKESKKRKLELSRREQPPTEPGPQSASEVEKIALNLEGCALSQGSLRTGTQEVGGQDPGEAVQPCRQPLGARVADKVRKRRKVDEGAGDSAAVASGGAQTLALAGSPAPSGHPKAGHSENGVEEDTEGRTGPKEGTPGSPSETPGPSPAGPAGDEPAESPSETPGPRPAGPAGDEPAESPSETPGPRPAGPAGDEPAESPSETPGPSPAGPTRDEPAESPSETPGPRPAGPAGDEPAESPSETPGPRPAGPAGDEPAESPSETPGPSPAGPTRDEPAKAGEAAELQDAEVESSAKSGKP

COLO 205 cells = assay: Growth assay (cell counts) of COLO 205 human colon cancer cells; type: cell-based; details: 10^−6 M NTX, 48 hr
Description: (§1) HT-29, WiDr, and COLO 205 cell lines were obtained from the American Type Culture Collection (Rockville, Md.). HT-29 cells were grown in McCoy's 5A media (modified), WiDr cells in Minimum Essential Media, and COLO 205 cells in RPMI 1640 media; all media contained 10% fetal calf serum, 2 mM […], 1.2% sodium bicarbonate and antibiotics (11 Units/ml penicillin, 10 μg/ml streptomycin, 10 μg/ml neomycin) in a humidified atmosphere of 7% CO2/93% air at 37° C. In some examples, cultures of HT-29 cells were maintained in McCoy's 5A media without fetal calf serum.
(§2) Cells were seeded at equivalent amounts into 75 cm^2 flasks or into 9.6 cm^2 wells (6-well plates, Falcon) and were counted 24 hr later to determine plating efficiency. Drugs or sterile water were added beginning 24 hr after seeding (=0 hours) and both media and drugs were changed daily. All drugs were prepared in sterile water and dilutions represent final concentrations of the compounds. At appropriate times, cells were harvested with 0.05% trypsin/0.53 mM EDTA, centrifuged, and counted with a hemacytometer at 200×. Cell viability was determined by trypan blue staining. At least 2 aliquots/flask or well were counted and 2 flasks or wells/time point/treatment group were sampled.
(§3) To examine the ubiquity of opioid activity with respect to colon cancer, two other colon cancer cell lines were investigated: COLO 205 and WiDr.

ζ-opioid receptor [2] = target: T1, ζ-opioid receptor; assay: [3H]-[Met5]-enkephalin binding of HT-29 tumor homogenates from nude mice treated with 0.1 mg/kg NTX; parameters: from tissue; host or cells: HT-29 human colon tumor xenografts grown in athymic nude mice; nuclear (P1) and other subcellular fractions
Description: Endogenous opioid systems regulate growth of neural tumor cells in culture. Brain Res. 490:1313-1318 (1988)].
Receptor binding data were analyzed with a Lundon (Saturation Isotherm Binding Analysis) computer program (Lundon Software, Cleveland, Ohio). This analysis utilizes non-linear least squares regression. Saturation curves and Scatchard plots were computed and plotted directly by this program.

WiDr cells = assay: Growth assay (cell counts) of WiDr human colon cancer cells; type: cell-based; details: 10^−6 M NTX, 48 hr
Description: as §1, §2, §3

HT-29 cells = assay: Growth assay (cell counts) of HT-29 human colon cancer cells in culture; type: cell-based
Description: In some examples, cultures of HT-29 cells were maintained in McCoy's 5A media without fetal calf serum.
as §2

neuroblastoma = details: cited from earlier work
[3] = system: HT-29 human colon cancer cells; assay: HT-29 human colon tumor xenografts in nude mice treated with 0.1 mg/kg naltrexone; type: in vivo
Description: HT-29 human colon cancer cells, purchased from the American Type Culture Collection (Rockville, Md.), were grown in McCoy's 5A Modified Medium containing 10% fetal calf serum, L-glutamine (2 mM), penicillin (10 units/ml), and streptomycin ([…]) in an atmosphere of 7% CO2 at 37° C. Cell viability was determined by the trypan blue exclusion test. Five- to six-week-old male athymic nude mice, obtained from the National Cancer Institute (Frederick, Md.), were injected subcutaneously over the right shoulder with 1×10^6 log phase HT-29 cells in a 0.5 ml suspension of McCoy's media. The day of tumor cell inoculation was considered day 0. The mice were evaluated daily and the date that the tumor became palpable was recorded. The time of “initial” appearance of a tumor was considered to be the day when tumor volume was 5 mm^3 or larger. Individual tumors were measured with vernier calipers every 2 days. Measurements of the two largest perpendicular dimensions were recorded and tumors volume was calculated using the formula: length×(width)^2×0.5 [Osieka, R., D. P. Houchens, and A. Goldin. Chemotherapy of human colon cancer xenografts in athymic nude mice. Cancer 40:2640-2650, (1977)]. All mice were euthanized and necropsied 50 days after tumor cell inoculation. Tumor tissue for receptor binding assays and radioimmunoassays was rapidly frozen in liquid nitrogen and stored at −70° C. until assayed.
Treatment was initiated on the day of tumor cell inoculation. […] Animals were weighed-weekly and appropriate dosage adjustments made.
Latencies until tumor appearance were analyzed using one-way analysis of variance; subsequent comparisons were made with the Newman-Keuls test. The number of mice developing tumors was expressed as a ratio of the total number of mice in the group. Comparisons between groups were made with chi-square tests.
The growth of tumors was compared for each mouse beginning on the day of initial tumor appearance and every 3 days thereafter until the termination of the experiment. Tumor measurements on these days were analyzed using one-way analysis of variance and Newman-Keuls test. Body weights were compared with a two-factor analysis of variance.

For O=C1CC[C@@]2(O)[C@H]3Cc4ccc(O)c5c4[C@@]2(CCN3CC2CC2)[C@H]1O5 [naltrexone], the IC50 (ζ-opioid receptor [1]; 4.0 nM [3H][Met5]enkephalin, read-out: IC50) was 90.5 ± 3.5 nM, the Ki (ζ-opioid receptor [1]; calculated from IC50 by Cheng and Prusoff, read-out: KI) was 69.6 ± 2.7 nM and the “more cells than control cultures” value (COLO 205 cells) was 76%. The “binding affinity (Kd) versus control levels” value (ζ-opioid receptor [2]; 0.1 mg/kg naltrexone) was “did not differ”, the “binding capacity (Bmax) decreased from control values” (ζ-opioid receptor [2]; 0.1 mg/kg naltrexone) was 6.6 fold and the “Bmax, fmol/mg protein” value (ζ-opioid receptor [2]; tumors from mice treated with 0.1 mg/kg NTX) was 52.9 ± 12.1 fmol/mg protein. The “more cells than control cultures” value (WiDr cells) was 68%, the “effect on cell growth in serum-free media” value (HT-29 cells) was “significant increase in cell number” and the “increase in cell number compared to control cultures” value (HT-29 cells; 10^−6 M NTX, 12 hr) was 38%. For the same compound, the “duration of opioid receptor blockade” value (neuroblastoma; 0.1 mg/kg single daily injection) was 4-6 h/day, the “course of tumorigenesis and survival” value (neuroblastoma; chronic receptor blockade: 10 mg/kg per day or 0.1 mg/kg 4 times daily) was “accelerated the course of tumorigenesis and shortened survival” and the “tumor effect (e.g. tumor incidence)” value (neuroblastoma; single daily injection of 0.1 mg/kg) was “antitumor effect”. The “Number of mice with tumors 19 days after inoculation” value ([3]; 0.1 mg/kg NTX daily) was 3/10**, the “Number of mice with tumors 36 days after inoculation” value ([3]; 0.1 mg/kg NTX daily) was 6/10* and the “Number of mice with tumors 50 days after inoculation” value ([3]; 0.1 mg/kg NTX daily) was 8/10. For the same compound, the “Latency (days) for initial tumor appearance” value ([3]; 0.1 mg/kg NTX daily s.c.) was 23.1 ± 2.9 days, the “Latency (days) for initial tumor appearance (Range)” value ([3]; 0.1 mg/kg NTX daily s.c.) was “(14-37) days” and the “Latency (days) for palpable tumor” value ([3]; 0.1 mg/kg NTX daily s.c. from inoculation) was 17.0 ± 2.8 days. For the same compound, the “behavioral differences (e.g. hyperactivity) versus control” value ([3]; 0.1 mg/kg naltrexone) was “no behavioral differences”, the “interval between palpable tumors and initial tumor appearance versus control” value ([3]; 0.1 mg/kg naltrexone) was “similar” and the “mean latency prior to palpable tumor appearance increased compared to control” value ([3]; 0.1 mg/kg naltrexone) was 2.4 fold. For the same compound, the “range in latency until initial tumor appearance greater than control” value ([3]; 0.1 mg/kg naltrexone) was “up to 2 fold”, the “size of tumors after initial tumor appearance versus control” value ([3]; 0.1 mg/kg naltrexone) was “did not differ” and the “body weights versus control animals” value ([3]; 0.1 mg/kg naltrexone, throughout the experiment) was “comparable”. For the same compound, the mice with tumors ([3]; day 36, 0.1 mg/kg) was 60%, the “mice that still did not have tumors” value ([3]; day 50, 0.1 mg/kg) was 20% and the “mice with tumors of 5 mm^3 or larger” value ([3]; nineteen days after inoculation, 0.1 mg/kg) was 30%. The “number of mice with palpable tumors” value ([3]; ten days after tumor cell inoculation, 0.1 mg/kg) was 2.
